Some test systems named below: BT-549 breast; A498 renal; LOX IMVI melanoma; SNB-19 CNS; KM12 colon; IGROV1 ovarian; OVCAR-4 ovarian; NCI/ADR-RES ovarian; DMS 273 small cell lung; XF 498 CNS; DLD-1 colon; M19-MEL melanoma.
Test in all cases: NCI anticancer screen, dose series, 48 h

Molecules are shown by their SMILES.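 Values below derive from 48-hour exposures of cells grown in 96-well plates, with endpoints linearly interpolated between the two concentrations bracketing the appropriate inhibition level. Here, GI50 denotes the concentration required for 50% inhibition of growth. Definition used: TGI = concentration required for complete inhibition of growth.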

In the case of `O=C(O)Cc1[nH]cnc1C(=O)O`, the TGI in the test with BT-549 breast, with A498 renal, in the test on LOX IMVI melanoma, in the test with SNB-19 CNS, in the test with KM12 colon and with IGROV1 ovarian was over 100 µM each time. The TGI in the test on OVCAR-4 ovarian and in the test on NCI/ADR-RES ovarian was over 100 µM each time.

Consider `N#CC1=C(N)Nc2nc3ccccc3n2C1c1ccccc1` (stereo unspecified), for which the TGI in the test on BT-549 breast was 62.4 µM; in the test with A498 renal, 96.1 µM; in the test with LOX IMVI melanoma it was over 100 µM; in the test on SNB-19 CNS it was over 100 µM; in the test with KM12 colon, over 100 µM; in the test on IGROV1 ovarian, over 100 µM. Further, the TGI in the test with NCI/ADR-RES ovarian is over 100 µM.

For the molecule `CCOn1cc(C2=C(c3c[nH]c4ccccc34)C(=O)NC2=O)c2ccccc21`, the TGI with LOX IMVI melanoma was 25.9 µM; in the test with SNB-19 CNS it was 20.5 µM; in the test with KM12 colon, 2 µM; in the test on IGROV1 ovarian, over 61.6 µM; with OVCAR-4 ovarian it was over 72.4 µM; in the test with NCI/ADR-RES ovarian it was under 0.01 µM. The GI50 with SNB-19 CNS was under 0.0264 µM; with KM12 colon, under 0.0161 µM; with IGROV1 ovarian, 15.8 µM; in the test with OVCAR-4 ovarian it was 14.6 µM; in the test on NCI/ADR-RES ovarian it was under 0.01 µM.

In the case of `CC1(C)N=C(N)N=C(N)N1c1cccc(OCc2cccc([N+](=O)[O-])c2)c1`, the TGI in the test with BT-549 breast, in the test with A498 renal, in the test on LOX IMVI melanoma, with SNB-19 CNS, in the test on KM12 colon and with IGROV1 ovarian was over 100 µM in each case. For the same molecule, the TGI with OVCAR-4 ovarian and in the test with NCI/ADR-RES ovarian was over 100 µM throughout.

Regarding `COC(=O)c1nc2c3c(cccc3c1C(=O)OC)Nc1ccccc1-2`, the TGI in the test with BT-549 breast, with A498 renal, with LOX IMVI melanoma, in the test on SNB-19 CNS, with KM12 colon and with IGROV1 ovarian was over 100 µM in each case. For the same molecule, the TGI in the test on OVCAR-4 ovarian and with NCI/ADR-RES ovarian was over 100 µM throughout.

Take `O=C1OC2(c3ccc(O)cc3Oc3cc(O)ccc32)c2c1c(-c1ccccc1)c(-c1ccccc1)c(-c1ccccc1)c2-c1ccccc1`: the TGI in the test on BT-549 breast was determined as 53.8 µM; with A498 renal, 33.9 µM; with LOX IMVI melanoma it was 32.4 µM; in the test with SNB-19 CNS it was 37.7 µM; with KM12 colon, 32.3 µM; in the test on IGROV1 ovarian it was 37.4 µM. The TGI was found to be 80.7 µM in the test on OVCAR-4 ovarian and 98.2 µM with NCI/ADR-RES ovarian.

`CSc1sc(=S)sc1SC`: the TGI in the test with A498 renal, in the test with DMS 273 small cell lung, with LOX IMVI melanoma, with SNB-19 CNS, with XF 498 CNS and with DLD-1 colon was over 100 µM each time. For the same molecule, the TGI with M19-MEL melanoma is over 100 µM; in the test on KM12 colon it was over 100 µM; with IGROV1 ovarian it was over 100 µM; with OVCAR-4 ovarian, over 100 µM; in the test with NCI/ADR-RES ovarian, 54.3 µM.

Turning to `C/C(=C\COP(=O)(O)OP(=O)(O)O)CC/C=C(\C)CNc1ccc([N+](=O)[O-])cc1`, the TGI with LOX IMVI melanoma, in the test with SNB-19 CNS, in the test with KM12 colon, in the test with IGROV1 ovarian, in the test with OVCAR-4 ovarian and with NCI/ADR-RES ovarian was over 100 µM throughout.

Regarding `C#C[C@@]1(O)[C@@H](CO)O[C@@H](n2cc(F)c3c(N)ncnc32)[C@@H]1O`, the GI50 was 0.843 µM with BT-549 breast; 0.725 µM in the test with A498 renal; 0.279 µM with LOX IMVI melanoma; 0.524 µM in the test with SNB-19 CNS; 0.502 µM in the test with KM12 colon; 0.324 µM in the test with IGROV1 ovarian. The GI50 in the test with OVCAR-4 ovarian is 1.01 µM; in the test with NCI/ADR-RES ovarian, 0.306 µM. Moreover, the TGI with BT-549 breast came out at 4.18 µM; in the test with A498 renal, 2.27 µM; in the test with LOX IMVI melanoma, 1.11 µM; in the test on SNB-19 CNS, 13.7 µM; in the test with KM12 colon, 24.9 µM; in the test with IGROV1 ovarian, 1.42 µM. In addition, the TGI with OVCAR-4 ovarian came to 8.67 µM; in the test with NCI/ADR-RES ovarian, 11.3 µM.

With `NC(=O)c1cc(C2OC(CO)C(O)C2O)nn1-c1ccc([N+](=O)[O-])cc1` (stereo unspecified), the TGI in the test with A498 renal, in the test on DMS 273 small cell lung, with LOX IMVI melanoma, in the test with SNB-19 CNS, in the test with XF 498 CNS and in the test on DLD-1 colon was over 100 µM throughout. The TGI in the test on KM12 colon, in the test with IGROV1 ovarian and in the test with OVCAR-4 ovarian was over 100 µM in each case.

As for `C[C@H](CCC1=NCCN1)[C@H]1CC[C@H]2[C@@H]3CC[C@@H]4C[C@H](O)CC[C@]4(C)[C@H]3CC[C@]12C`, the TGI is 33.4 µM in the test on BT-549 breast; 34.5 µM with A498 renal; 4.76 µM with LOX IMVI melanoma; 36.3 µM in the test with SNB-19 CNS; over 47.4 µM with KM12 colon; 25.4 µM with IGROV1 ovarian. The TGI in the test with OVCAR-4 ovarian came out at 29.6 µM; in the test on NCI/ADR-RES ovarian it was 39.5 µM.

Regarding `O=C(O)C(Br)Cc1ccc2c(c1)OCO2` (stereo unspecified), the TGI with A498 renal was over 100 µM; with SNB-19 CNS, over 100 µM; in the test on XF 498 CNS it was 89.3 µM; in the test on DLD-1 colon it was over 100 µM; in the test with M19-MEL melanoma it was over 100 µM; with KM12 colon, over 100 µM. For the same molecule, the TGI in the test with IGROV1 ovarian and in the test with OVCAR-4 ovarian was over 100 µM in each case.

On to `COc1ccc(/C(Cl)=C(\C=O)c2ccc(Cl)c(Cl)c2)cc1OC`, for which the TGI is 30.4 µM in the test with A498 renal; 21.7 µM with DMS 273 small cell lung; 13.6 µM in the test with LOX IMVI melanoma; 65.9 µM in the test on SNB-19 CNS; 7.95 µM with XF 498 CNS; 20.3 µM in the test on DLD-1 colon. The TGI with M19-MEL melanoma was determined as 23 µM.

For `CCCCCCCCCCCCCCCCOCCCOP(=O)(O)C1CCCN(O)C1=O` (stereo unspecified), the GI50 was 1.73 µM with A498 renal; 2.86 µM in the test on LOX IMVI melanoma; 0.63 µM in the test with SNB-19 CNS; 0.572 µM in the test on KM12 colon; 0.609 µM in the test with IGROV1 ovarian; 2.43 µM with OVCAR-4 ovarian. Moreover, in the test on NCI/ADR-RES ovarian, the GI50 is 4.02 µM. Moreover, the TGI with A498 renal was found to be 12.4 µM; in the test on LOX IMVI melanoma, 11.4 µM; in the test with SNB-19 CNS, 14.5 µM; in the test with KM12 colon, 11.3 µM; in the test with IGROV1 ovarian, 4.77 µM; with OVCAR-4 ovarian, 19.2 µM. Moreover, in the test with NCI/ADR-RES ovarian, the TGI was determined as 25.6 µM.

As to `COc1ccc(/C=C/[N+](=O)[O-])cc1`, the TGI is 17.3 µM in the test on A498 renal; 12.7 µM in the test on SNB-19 CNS; 12 µM in the test with KM12 colon; 11.3 µM in the test on IGROV1 ovarian; 38.2 µM with OVCAR-4 ovarian; over 100 µM in the test with NCI/ADR-RES ovarian.

On to `O=C1c2ccccc2C(=O)c2c(O)c(O)cc(O)c21`, for which the TGI in the test on A498 renal is over 100 µM; with DMS 273 small cell lung, over 100 µM; with LOX IMVI melanoma it was over 100 µM; with SNB-19 CNS it was over 100 µM; in the test on XF 498 CNS it was 86.3 µM; with DLD-1 colon, over 100 µM. The TGI in the test with M19-MEL melanoma, with KM12 colon, in the test on IGROV1 ovarian and in the test with OVCAR-4 ovarian was over 100 µM each time.

As for `COc1cc2c3c(c4cc(OC)c(OC)cc4c2cc1OC)[C@H](O)[C@@H]1CCCN1C3`, the TGI with BT-549 breast is 9.63 µM; with LOX IMVI melanoma, 2.75 µM; in the test on SNB-19 CNS it was over 100 µM; in the test with KM12 colon, 1.52 µM; in the test on OVCAR-4 ovarian it was 0.702 µM; with NCI/ADR-RES ovarian, 2.97 µM.

With `Nc1nncs1`, the TGI is over 5000 µM in the test with BT-549 breast; over 5000 µM in the test on A498 renal; over 5000 µM in the test on DMS 273 small cell lung; over 5000 µM with LOX IMVI melanoma; over 5000 µM in the test on SNB-19 CNS; 3890 µM in the test with XF 498 CNS. Moreover, the TGI with DLD-1 colon was over 5000 µM; in the test with M19-MEL melanoma, over 4550 µM; in the test on KM12 colon it was over 5000 µM; with IGROV1 ovarian, over 4680 µM; with OVCAR-4 ovarian, over 5000 µM; in the test on NCI/ADR-RES ovarian it was over 5000 µM.

In the case of `COc1ccc2c(c1)/C(=C\c1cccc(/C=C3/C(=O)Nc4ccc(OC)cc43)n1)C(=O)N2`, the TGI in the test with BT-549 breast is 6.39 µM; in the test on A498 renal it was 6.03 µM; in the test with LOX IMVI melanoma, 1.24 µM; in the test with SNB-19 CNS, 3.38 µM; in the test with KM12 colon, 4.64 µM; with IGROV1 ovarian it was over 100 µM. Besides, the results for the TGI in the test on OVCAR-4 ovarian and in the test on NCI/ADR-RES ovarian were 3.28 µM and over 58.8 µM, respectively. For the same molecule, the GI50 in the test on IGROV1 ovarian was 2.2 µM.

For `O=C(O)CNCc1c2ccccc2[n+]([O-])c2ccccc12`, the TGI in the test with A498 renal, with DMS 273 small cell lung, with LOX IMVI melanoma, in the test with SNB-19 CNS, in the test on DLD-1 colon and in the test on M19-MEL melanoma was over 100 µM in each case. Moreover, the TGI with KM12 colon, in the test on IGROV1 ovarian and in the test with OVCAR-4 ovarian was over 100 µM throughout.

These data come from PubChem BioAssay (NCI).
